The record followed here is patent US9120812B2, “Pyrimidooxazocine derivatives as mTOR-inhibitors” (SANOFI, priority 2012, dated 2015).

One test addresses PI3Kα (p110α/p85α) (Homo sapiens (Human), UniProt P42336). Put plainly: PI3Kα enzymatic test by measuring the consumption of ATP. The test is classed as biochemical. An outline of the steps: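 p110α/p85α (1.7 μg/ml) with 50 μM PIP2 and 2 μM ATP in pH 7.5 Tris buffer with EGTA, MgCl2, Chaps, DTT; reaction 90 min. Remaining ATP measured by luciferin/luciferase luminescence; IC50 from threefold serial dilutions spanning at least 10 000-fold.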

The next test deals with Akt-pS473 in U87MG cells. The conditions noted are these: Homo sapiens, U-87 MG; for IC50: read-out: U87 Akt-pS473 % Inhibition or IC50, nM (IC50), U87MG cells.
A further test deals with U87MG tumour cells. Put plainly: Test of in vitro proliferation of U87MG tumour cells. The test is classed as cell-based. The conditions noted are these: Homo sapiens, U-87 MG, 72 h, U87MG cells, 72 hours; read-out: U87 Cell Proliferation IC50. As to the method:
Model 4: Test of in vitro Proliferation of U87MG Tumour Cells.
The cell growth is determined with the reagent CellTiter 96 AQueous One Solution Cell Proliferation Assay from Promega (Cat. No. G3581).

Test [1] concerns the target mTOR (human recombinant aa mTOR 1360-2549) (Homo sapiens (Human), UniProt P42345). Put plainly: mTOR enzymatic test by TR-FRET (phosphorylation of GFP-4EBP1). The test is classed as biochemical. In outline:
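TR-FRET detection of GFP-4EBP1 phosphorylation by a terbium-labelled anti-phospho-Thr46 antibody. Kinase reaction ran 30 min at room temperature, was quenched with EDTA (10 mM final) plus Tb-antibody (2 nM final) and left 60 min. Emission at 520 and 490 nm after 340 nm excitation, reported as the 520/490 ratio.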

Chain of PI3Kα (p110α/p85α) (P42336 whole entry): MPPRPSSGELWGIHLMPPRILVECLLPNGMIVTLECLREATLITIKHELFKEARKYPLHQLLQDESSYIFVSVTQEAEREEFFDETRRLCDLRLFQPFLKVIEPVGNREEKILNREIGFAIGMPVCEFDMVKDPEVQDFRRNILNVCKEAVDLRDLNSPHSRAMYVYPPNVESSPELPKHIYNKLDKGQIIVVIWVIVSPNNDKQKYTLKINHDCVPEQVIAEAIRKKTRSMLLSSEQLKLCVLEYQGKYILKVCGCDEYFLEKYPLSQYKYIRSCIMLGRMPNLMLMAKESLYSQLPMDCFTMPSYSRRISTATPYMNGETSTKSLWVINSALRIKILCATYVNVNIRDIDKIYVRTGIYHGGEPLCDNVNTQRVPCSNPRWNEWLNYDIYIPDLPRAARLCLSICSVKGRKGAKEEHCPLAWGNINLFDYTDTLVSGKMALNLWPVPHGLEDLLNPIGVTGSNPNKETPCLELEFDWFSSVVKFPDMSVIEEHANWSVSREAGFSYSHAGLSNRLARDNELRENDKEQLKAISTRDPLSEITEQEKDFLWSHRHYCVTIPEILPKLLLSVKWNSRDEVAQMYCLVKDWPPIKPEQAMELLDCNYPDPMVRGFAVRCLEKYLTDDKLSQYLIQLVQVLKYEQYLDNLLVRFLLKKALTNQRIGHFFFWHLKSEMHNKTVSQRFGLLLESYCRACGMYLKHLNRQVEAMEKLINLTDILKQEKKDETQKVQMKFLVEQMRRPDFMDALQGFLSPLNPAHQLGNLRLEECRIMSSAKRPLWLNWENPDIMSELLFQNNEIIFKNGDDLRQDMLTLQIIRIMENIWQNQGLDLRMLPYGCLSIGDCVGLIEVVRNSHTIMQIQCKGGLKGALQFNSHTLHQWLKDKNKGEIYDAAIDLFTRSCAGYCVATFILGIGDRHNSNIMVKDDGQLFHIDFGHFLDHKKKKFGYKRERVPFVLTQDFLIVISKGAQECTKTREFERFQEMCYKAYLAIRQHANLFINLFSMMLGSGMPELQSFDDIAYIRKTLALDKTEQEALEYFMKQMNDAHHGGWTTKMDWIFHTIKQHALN
Chain of PI3Kα (p110α/p85α) (P27986 whole entry partner): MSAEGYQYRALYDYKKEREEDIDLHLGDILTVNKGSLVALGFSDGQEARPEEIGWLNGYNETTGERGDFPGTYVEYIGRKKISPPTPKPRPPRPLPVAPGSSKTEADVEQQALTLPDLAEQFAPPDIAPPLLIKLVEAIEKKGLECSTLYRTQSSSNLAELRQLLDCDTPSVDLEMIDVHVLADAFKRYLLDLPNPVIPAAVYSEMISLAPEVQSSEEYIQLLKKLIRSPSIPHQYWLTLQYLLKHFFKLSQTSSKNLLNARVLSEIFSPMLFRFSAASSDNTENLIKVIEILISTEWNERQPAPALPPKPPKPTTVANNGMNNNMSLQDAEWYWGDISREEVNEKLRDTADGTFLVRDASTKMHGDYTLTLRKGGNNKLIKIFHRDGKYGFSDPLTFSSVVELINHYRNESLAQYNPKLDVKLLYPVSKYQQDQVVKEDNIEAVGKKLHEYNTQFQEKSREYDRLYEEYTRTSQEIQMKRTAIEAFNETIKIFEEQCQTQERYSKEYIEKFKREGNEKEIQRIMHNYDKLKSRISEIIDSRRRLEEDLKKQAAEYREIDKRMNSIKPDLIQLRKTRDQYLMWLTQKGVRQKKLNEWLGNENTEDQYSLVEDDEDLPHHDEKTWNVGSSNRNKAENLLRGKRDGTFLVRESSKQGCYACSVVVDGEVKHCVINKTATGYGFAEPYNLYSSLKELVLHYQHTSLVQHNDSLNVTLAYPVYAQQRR
Chain of mTOR (human recombinant aa mTOR 1360-2549) (P42345 1360-2549): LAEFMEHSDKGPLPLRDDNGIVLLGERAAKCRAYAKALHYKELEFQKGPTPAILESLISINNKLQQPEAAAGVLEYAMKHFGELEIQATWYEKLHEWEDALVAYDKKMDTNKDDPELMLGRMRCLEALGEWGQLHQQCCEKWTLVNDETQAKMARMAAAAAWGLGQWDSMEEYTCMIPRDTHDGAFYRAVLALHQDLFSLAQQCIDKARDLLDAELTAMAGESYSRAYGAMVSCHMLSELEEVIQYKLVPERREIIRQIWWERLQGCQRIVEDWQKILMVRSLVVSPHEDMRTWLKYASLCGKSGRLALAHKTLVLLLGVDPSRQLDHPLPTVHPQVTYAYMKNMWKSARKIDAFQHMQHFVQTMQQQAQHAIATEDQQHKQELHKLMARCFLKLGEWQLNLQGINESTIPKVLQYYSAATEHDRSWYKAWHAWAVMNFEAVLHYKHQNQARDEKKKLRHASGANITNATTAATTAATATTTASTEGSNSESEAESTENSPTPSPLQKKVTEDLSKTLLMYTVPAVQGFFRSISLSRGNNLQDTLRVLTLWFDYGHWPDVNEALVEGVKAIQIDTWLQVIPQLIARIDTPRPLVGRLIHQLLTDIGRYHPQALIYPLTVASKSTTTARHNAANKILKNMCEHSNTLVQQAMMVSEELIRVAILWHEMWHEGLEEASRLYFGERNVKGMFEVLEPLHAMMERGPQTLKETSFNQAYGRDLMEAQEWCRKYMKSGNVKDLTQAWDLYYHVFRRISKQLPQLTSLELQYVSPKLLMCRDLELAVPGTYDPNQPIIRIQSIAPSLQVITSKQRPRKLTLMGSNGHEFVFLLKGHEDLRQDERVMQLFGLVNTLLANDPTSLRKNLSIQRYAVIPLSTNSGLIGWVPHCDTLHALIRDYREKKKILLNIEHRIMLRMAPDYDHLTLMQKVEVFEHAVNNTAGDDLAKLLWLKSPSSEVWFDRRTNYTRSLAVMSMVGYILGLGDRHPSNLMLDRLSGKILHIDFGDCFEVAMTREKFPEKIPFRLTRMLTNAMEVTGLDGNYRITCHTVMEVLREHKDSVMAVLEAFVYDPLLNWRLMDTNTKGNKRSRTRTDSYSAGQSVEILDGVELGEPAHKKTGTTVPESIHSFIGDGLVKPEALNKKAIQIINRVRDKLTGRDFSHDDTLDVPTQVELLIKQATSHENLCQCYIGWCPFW

Regarding `CCN1CC(C)(C)Oc2nc(N3C4CCC3COC4)nc(-c3ccc(NC(=O)Nc4ccccn4)cc3)c2C1=O` [Example 63, 1-{4-[6-Ethyl-8,8-dimethyl-2-(3-oxa-8-azabicyclo[3.2.1]oct-8-yl)-5-oxo-5,6,7,8-tetrahydro-9-oxa-1,3,6-triazabenzocyclohepten-4-yl]phenyl}-3-pyridin-2-ylurea], on PI3Kα (p110α/p85α), the “PI3Ka IC50” value is greater than 10000 nM. In addition, the results for the IC50 (with Akt-pS473 in U87MG cells; in the test on U87MG tumour cells; in test [1]) were 31 nM, 190 nM and 31 nM, respectively.

As for `CCNC(=O)Nc1ccc(-c2nc(N3CCOC[C@@H]3C)nc3c2C(=O)N(CC)CC(C)(C)O3)cc1F` [Example 3, 1-Ethyl-3-{4-[6-ethyl-8,8-dimethyl-2-((S)-3-methylmorpholin-4-yl)-5-oxo-5,6,7,8-tetrahydro-9-oxa-1,3,6-triazabenzocyclohepten-4-yl]-2-fluorophenyl}urea], on PI3Kα (p110α/p85α), the “PI3Ka IC50” value was determined as 2110 nM. Also, the figures for the IC50 (in the test on Akt-pS473 in U87MG cells; in the test on U87MG tumour cells; in test [1]) were 48 nM, 242 nM and 18 nM, respectively.

As for `CCN1CC(C)(C)Oc2nc(N3C4CCC3COC4)nc(-c3ccc(NC(=O)Nc4cccnc4)c(F)c3)c2C1=O` [Example 50, 1-{4-[6-Ethyl-8,8-dimethyl-2-(3-oxa-8-azabicyclo[3.2.1]oct-8-yl)-5-oxo-5,6,7,8-tetrahydro-9-oxa-1,3,6-triazabenzocyclohepten-4-yl]-2-fluorophenyl}-3-pyridin-3-ylurea], the “PI3Ka IC50” value on PI3Kα (p110α/p85α) was found to be 2870 nM. Besides, the IC50 with Akt-pS473 in U87MG cells worked out at 7 nM; in the test on U87MG tumour cells it was 40 nM; in test [1] it was 39 nM.

Turning to `CCN1CC(C)(C)Oc2nc(N3CC4CCC(C3)O4)nc(-c3ccc(NC(=O)Nc4ccon4)c(C)c3)c2C1=O` [Example 165, 1-{4-[6-Ethyl-8,8-dimethyl-2-(8-oxa-3-azabicyclo[3.2.1]oct-3-yl)-5-oxo-5,6,7,8-tetrahydro-9-oxa-1,3,6-triazabenzocyclohepten-4-yl]-2-methylphenyl}-3-isoxazol-3-ylurea], on PI3Kα (p110α/p85α), the “PI3Ka IC50” value is reported as greater than 10000 nM. The IC50 was found to be 1530 nM in the test on Akt-pS473 in U87MG cells, 4200 nM in the test with U87MG tumour cells and 180 nM in test [1].

Take `CCN1CC(C)(C)Oc2nc(N3CCOC[C@@H]3C)nc(-c3ccc(NC(=O)Nc4ccc(C(=O)NCC(C)(C)O)cc4)cc3)c2C1=O` [Example 219, 4-(3-{4-[6-Ethyl-8,8-dimethyl-2-((S)-3-methylmorpholin-4-yl)-5-oxo-5,6,7,8-tetrahydro-9-oxa-1,3,6-triazabenzocyclohepten-4-yl]phenyl}ureido)-N-(2-hydroxy-2-methylpropyl)benzamide]: the “PI3Ka IC50” value on PI3Kα (p110α/p85α) came out at 98 nM. Moreover, the IC50 with Akt-pS473 in U87MG cells came to 28 nM; in the test with U87MG tumour cells, 436 nM; in test [1], 38 nM.

Consider `CN1CC(C)(C)Oc2nc(N3C4CCC3COC4)nc(-c3ccc(NC(=O)Nc4ccncc4)cc3)c2C1=O` [Example 68, 1-Pyridin-4-yl-3-{4-[6,8,8-trimethyl-2-(3-oxa-8-azabicyclo[3.2.1]oct-8-yl)-5-oxo-5,6,7,8-tetrahydro-9-oxa-1,3,6-triazabenzocyclohepten-4-yl]phenyl}urea], for which the “PI3Ka IC50” value on PI3Kα (p110α/p85α) amounted to 1360 nM. The IC50 with Akt-pS473 in U87MG cells was 16 nM; in the test on U87MG tumour cells it was 82 nM; in test [1], 12 nM.

Turning to `COc1ccc(NC(=O)Nc2ccc(-c3nc(N4CC5CCC(C4)O5)nc4c3C(=O)N(C3CCOCC3)CC(C)(C)O4)cc2)cn1` [Example 148, 1-{4-[8,8-Dimethyl-2-(8-oxa-3-azabicyclo[3.2.1]oct-3-yl)-5-oxo-6-(tetrahydropyran-4-yl)-5,6,7,8-tetrahydro-9-oxa-1,3,6-triazabenzocyclohepten-4-yl]phenyl}-3-(6-methoxypyridin-3-yl)urea], the “PI3Ka IC50” value at PI3Kα (p110α/p85α) is reported as greater than 10000 nM. In addition, the IC50 in the test with Akt-pS473 in U87MG cells stood at 21 nM; in the test on U87MG tumour cells, 490 nM; in test [1] it was 68 nM.

Turning to `CCN1CC(C)(C)Oc2nc(N3CC4CCC(C3)O4)nc(-c3ccc(NC(=O)Nc4ccc(N5CCS(=O)(=O)CC5)cc4)c(F)c3)c2C1=O` [Example 237, 1-[4-(1,1-Dioxo-1λ6-thiomorpholin-4-yl)phenyl]-3-{4-[6-ethyl-8,8-dimethyl-2-(8-oxa-3-azabicyclo[3.2.1]oct-3-yl)-5-oxo-5,6,7,8-tetrahydro-9-oxa-1,3,6-triazabenzocyclohepten-4-yl]-2-fluorophenyl}urea], the “PI3Ka IC50” value on PI3Kα (p110α/p85α) is on record as greater than 7200 nM. Besides, the IC50 was 80 nM in the test with Akt-pS473 in U87MG cells, 49 nM in the test on U87MG tumour cells and 39 nM in test [1].

With `C[C@H]1COCCN1c1ccc(NC(=O)Nc2ccc(-c3nc(N4CC5CCC(C4)O5)nc4c3C(=O)N(C)CC(C)(C)O4)cc2F)cn1` [Example 73, 1-{2-Fluoro-4-[6,8,8-trimethyl-2-(8-oxa-3-azabicyclo[3.2.1]oct-3-yl)-5-oxo-5,6,7,8-tetrahydro-9-oxa-1,3,6-triazabenzocyclohepten-4-yl]phenyl}-3-[6-((S)-3-methylmorpholin-4-yl)pyridin-3-yl]urea], the “PI3Ka IC50” value at PI3Kα (p110α/p85α) is recorded as 5910 nM. For the same compound, the IC50 with Akt-pS473 in U87MG cells came out at 48 nM; with U87MG tumour cells, 119 nM; in test [1], 71 nM.

For the compound `COc1ccc(NC(=O)Nc2ccc(-c3nc(N4CC5CCC(C4)O5)nc4c3C(=O)N(C)CC(C)(C)O4)cc2)nc1` [Example 54, 1-(5-Methoxypyridin-2-yl)-3-{4-[6,8,8-trimethyl-2-(8-oxa-3-azabicyclo[3.2.1]oct-3-yl)-5-oxo-5,6,7,8-tetrahydro-9-oxa-1,3,6-triazabenzocyclohepten-4-yl]phenyl}urea], the “PI3Ka IC50” value on PI3Kα (p110α/p85α) came out at 3000 nM. For the same compound, the IC50 was 41 nM in the test on Akt-pS473 in U87MG cells, 161 nM with U87MG tumour cells and 32 nM in test [1].

With `CCN1CC(C)(C)Oc2nc(N3CC4CCC(C3)O4)nc(-c3ccc(NC(=O)Nc4ccc(CN5CCCCC5)cc4)cc3)c2C1=O` [Example 203, 1-{4-[6-Ethyl-8,8-dimethyl-2-(8-oxa-3-azabicyclo[3.2.1]oct-3-yl)-5-oxo-5,6,7,8-tetrahydro-9-oxa-1,3,6-triazabenzocyclohepten-4-yl]phenyl}-3-(4-piperidin-1-ylmethylphenyl)urea], the “PI3Ka IC50” value at PI3Kα (p110α/p85α) stood at 9610 nM. Also, the IC50 in the test with Akt-pS473 in U87MG cells was found to be 111 nM; in the test on U87MG tumour cells, 43 nM; in test [1], 96 nM.

Regarding `CCN1CC(C)(C)Oc2nc(N3CC4CCC(C3)O4)nc(-c3ccc(NC(=O)Nc4ccc(C)nc4)c(F)c3)c2C1=O` [Example 185, 1-{4-[6-Ethyl-8,8-dimethyl-2-(8-oxa-3-azabicyclo[3.2.1]oct-3-yl)-5-oxo-5,6,7,8-tetrahydro-9-oxa-1,3,6-triazabenzocyclohepten-4-yl]-2-fluorophenyl}-3-(6-methylpyridin-3-yl)urea], on PI3Kα (p110α/p85α), the “PI3Ka IC50” value turned out to be 5680 nM. Further, the IC50 with Akt-pS473 in U87MG cells is 20 nM; in the test with U87MG tumour cells, 73 nM; in test [1] it was 24 nM.

On to `CCN1CC(C)(C)Oc2nc(N3C[C@@H]4C[C@H]3CO4)nc(-c3ccc(NC(=O)NC)c(F)c3)c2C1=O` [Example 206, 1-[4-((1S,4S)-6-Ethyl-8,8-dimethyl-2-2-oxa-5-azabicyclo[2.2.1]hept-5-yl-5-oxo-5,6,7,8-tetrahydro-9-oxa-1,3,6-triazabenzocyclohepten-4-yl)-2-fluorophenyl]-3-methylurea], for which the “PI3Ka IC50” value at PI3Kα (p110α/p85α) is listed as greater than 10000 nM. Further, in the test on Akt-pS473 in U87MG cells (read-out: U87 Akt-pS473 % Inhibition), the inhibition (usually the relative decrease from the control value, in per cent) at 1 µM came out at 87%. Also, the IC50 with U87MG tumour cells is 1340 nM; in test [1], 145 nM.
